Molecular target: EBI2 (Homo sapiens, UniProt P32249)
Assay: Cell-based luminescent assay of EBI2 modulation (7a,25-OHC stimulated)
Details: 7a,25-OHC final assay concentration 80 nM, 60 minute incubation
Method: To assess EBI2 modulation, the compounds described herein were assayed in the following cell-based luminescent assay:
1) Plated 600 cells/well in 4 μL of assay media into columns 1-48 of a 1536-well assay plate, using a liquid dispenser.
2) Centrifuged plates at 1000 rpm for 1 minute and covered with lids.
3) Incubated overnight at 37° C., 100% relative humidity, 5% CO2.
1) Centrifuged compound plates containing compounds described herein at 500 rpm for 1 minute.
2) Added compounds into assay plate col 5-48 to final concentration 4-5 uM. Added matching amount of DMSO to positive and negative control wells in columns 1-4.
3) Dispensed 2 uL/well of assay media to columns 1-2 for the positive control wells.
4) Added 2 uL/well of 400 nM 7a,25-OHC (final assay concentration=80 nM) in assay media to columns 3-48 for the negative control and test compound wells.
5) Centrifuged plates at 1000 rpm for 1 minute and re-lid plates.
6) Incubated plates at 37° C., 100% relative humidity, 5% CO2 for 60 minutes.
7) Following 60 minute incubation, delivered 2.5 uL of Detection Reagent solution to each assay plate (Columns 1-48) using a liquid handler.
8) Centrifuged plates at 2000 rpm for 2 minutes and re-lid plates.
9) Incubated plates for 60 minutes at 25 degrees in the dark.
10) Read plates using the Viewlux, Envision or other suitable plate reader using a luminescence detection.
The experimental values were normalized by the difference between values from neutral and stimulator control wells in each plate. Then normalized data was corrected to remove systematic plate patterns due to artifacts such as dispensing tip issues etc.

EBI2, sequence (P32249 whole entry): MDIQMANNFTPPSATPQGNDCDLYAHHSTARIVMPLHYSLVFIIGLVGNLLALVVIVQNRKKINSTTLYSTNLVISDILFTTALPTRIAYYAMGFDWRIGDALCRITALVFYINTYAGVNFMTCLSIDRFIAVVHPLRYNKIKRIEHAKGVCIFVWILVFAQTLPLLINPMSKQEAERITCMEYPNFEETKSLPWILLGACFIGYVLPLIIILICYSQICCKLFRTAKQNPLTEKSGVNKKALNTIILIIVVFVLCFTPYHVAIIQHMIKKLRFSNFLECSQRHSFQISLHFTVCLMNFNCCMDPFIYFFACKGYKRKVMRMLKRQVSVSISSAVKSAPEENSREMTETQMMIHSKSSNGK

Question: For `O=C(C#Cc1ccc(F)cc1)N1CCC2(CC1)CN(Cc1ccc(F)cc1C(F)(F)F)C2` [Compound C90, 3-(4-fluorophenyl)-1-(2-{[4-fluoro-2-(trifluoromethyl)phenyl]methyl}-2,7-diazaspiro[3.5]non-7-yl)prop-2-yn-1-one], which IC50 is on record?
Answer: 100 to 500 nM

Question: `COc1ccc(C(=O)N2CC3(CCN(C(=O)/C=C/c4ccc(Br)cc4)CC3)C2)cc1OC` [Compound C9, (2E)-1-{2-[(3,4-dimethoxyphenyl)carbonyl]-2,7-diazaspiro[3.5]non-7-yl}-3-(4-bromophenyl)prop-2-en-1-one] was tested. Which IC50 did it give?
Answer: < 100 nM

Question: How did the IC50 turn out when `O=C(C#Cc1ccc(Br)cc1)N1CC2(CCN(C(=O)c3ccc(C(F)(F)F)cc3)CC2)C1` [Compound C65, 3-(4-bromophenyl)-1-(7-{[4-(trifluoromethyl)phenyl]carbonyl}-2,7-diazaspiro[3.5]non-2-yl)prop-2-yn-1-one] was run?
Answer: 100 to 500 nM

Question: For `O=C(c1ccc(F)cc1)N1CCC2(CC1)CN(C(=O)c1cc3ccc(Br)cc3[nH]1)C2` [Compound C57, 6-bromoindol-2-yl 7-[(4-fluorophenyl)carbonyl]-2,7-diazaspiro[3.5]non-2-yl ketone], which IC50 is on record?
Answer: 500 to 5000 nM

Question: With `O=C(c1ccc(C(F)(F)F)cc1)N1CCC2(CC1)CN(C(=O)c1cc3cc(Cl)ccc3[nH]1)C2` [Compound C39, 5-chloroindol-2-yl 7-{[4-(trifluoromethyl)phenyl]carbonyl}-2,7-diazaspiro[3.5]non-2-yl ketone] as the compound, how does the IC50 read?
Answer: < 100 nM

Question: For `O=C(C#Cc1ccc(F)cc1)N1CCC2(CC1)CN(C(=O)c1ccc(F)cc1)C2` [Compound C86, 3-(4-fluorophenyl)-1-{2-[(4-fluorophenyl)carbonyl]-2,7-diazaspiro[3.5]non-7-yl}prop-2-yn-1-one], which IC50 is on record?
Answer: 100 to 500 nM

Question: Which IC50 does the source give for `O=C(c1ccc(F)cc1)N1CC2(CCN(C(=O)c3cc4cc(Cl)ccc4[nH]3)CC2)C1` [Compound C5, 5-chloroindol-2-yl 2-[(4-fluorophenyl)carbonyl]-2,7-diazaspiro[3.5]non-7-yl ketone] here?
Answer: < 100 nM

Question: With `O=C(C#Cc1ccc(Cl)cc1)N1CCC2(CC1)CN(Cc1ccc(Cl)cc1)C2` [Compound C82, 3-(4-chlorophenyl)-1-{2-[(4-chlorophenyl)methyl]-2,7-diazaspiro[3.5]non-7-yl}prop-2-yn-1-one] as the compound, how does the IC50 read?
Answer: < 100 nM

Question: For `O=C(/C=C/c1ccc(Br)cc1)N1CCC2(CC1)CN(C(=O)c1ccc(F)cc1)C2` [Compound C53, (2E)-3-(4-bromophenyl)-1-{2-[(4-fluorophenyl)carbonyl]-2,7-diazaspiro[3.5]non-7-yl}prop-2-en-1-one], which IC50 is on record?
Answer: < 100 nM

Question: Which IC50 does the source give for `O=C(/C=C/c1ccc(Br)cc1)N1CCC2(CC1)CN(C(=O)c1cc(Cl)cc(Cl)c1)C2` [Compound C10, (2E)-1-{2-[(3,5-dichlorophenyl)carbonyl]-2,7-diazaspiro[3.5]non-7-yl}-3-(4-bromophenyl)prop-2-en-1-one] here?
Answer: < 100 nM

Question: How did the IC50 turn out when `O=C(/C=C/c1ccc(Cl)c(Cl)c1)N1CC2(CCN(Cc3ccc(C(F)(F)F)c(F)c3)CC2)C1` [Compound C34, (2E)-3-(3,4-dichlorophenyl)-1-(7-{[3-fluoro-4-(trifluoromethyl)phenyl]methyl}-2,7-diazaspiro[3.5]non-2-yl)prop-2-en-1-one] was run?
Answer: 100 to 500 nM

Question: How did the IC50 turn out when `O=C(c1ccc(Cl)cc1)N1CCC2(CC1)CN(C(=O)c1cc3ccc(Cl)cc3[nH]1)C2` [Compound C56, 6-chloroindol-2-yl 7-[(4-chlorophenyl)carbonyl]-2,7-diazaspiro[3.5]non-2-yl ketone] was run?
Answer: 500 to 5000 nM

Question: Which IC50 does the source give for `Nc1ccc(C(=O)N2CCC3(CC2)CN(C(=O)/C=C/c2ccc(Br)cc2)C3)cc1` [Compound C51, (2E)-1-{7-[(4-aminophenyl)carbonyl]-2,7-diazaspiro[3.5]non-2-yl}-3-(4-bromophenyl)prop-2-en-1-one] here?
Answer: < 100 nM

Question: How did the IC50 turn out when `O=C(/C=C/c1ccc(Br)cc1)N1CCC2(CC1)CN(C(=O)/C=C/c1ccc(Br)cc1)C2` [Compound C1, (2E)-1-{7-[(2E)-3-(4-bromophenyl)prop-2-enoyl]-2,7-diazaspiro[3.5]non-2-yl}-3-(4-bromophenyl)prop-2-en-1-one] was run?
Answer: < 100 nM

Question: For `O=C(/C=C/c1ccc(Br)cc1)N1CC2(CCN(C(=O)c3ccc(F)cc3C(F)(F)F)CC2)C1` [Compound C45, (2E)-3-(4-bromophenyl)-1-(7-{[4-fluoro-2-(trifluoromethyl)phenyl]carbonyl}-2,7-diazaspiro[3.5]non-2-yl)prop-2-en-1-one], which IC50 is on record?
Answer: < 100 nM

Question: For `COc1ccc(C(=O)N2CCC3(CC2)CN(C(=O)C#Cc2ccc(F)cc2F)C3)cc1` [Compound C97, 3-(2,4-difluorophenyl)-1-{7-[(4-methoxyphenyl)carbonyl]-2,7-diazaspiro[3.5]non-2-yl}prop-2-yn-1-one], which IC50 is on record?
Answer: 100 to 500 nM

Question: `O=C(C#Cc1ccc(Br)cc1)N1CCC2(CC1)CN(Cc1ccc(Cl)cc1)C2` [Compound C69, 3-(4-bromophenyl)-1-{2-[(4-chlorophenyl)methyl]-2,7-diazaspiro[3.5]non-7-yl}prop-2-yn-1-one] was tested. Which IC50 did it give?
Answer: < 100 nM

Question: How did the IC50 turn out when `O=C(C#Cc1ccc(Cl)cc1)N1CC2(CCN(C(=O)c3ccc(F)cc3)CC2)C1` [Compound C3, 3-(4-chlorophenyl)-1-{7-[(4-fluorophenyl)carbonyl]-2,7-diazaspiro[3.5]non-2-yl}prop-2-yn-1-one] was run?
Answer: 100 to 500 nM

Question: How did the IC50 turn out when `O=C(C#Cc1ccc2c(c1)OCO2)N1CCC2(CC1)CN(C(=O)c1ccc(Br)cc1)C2` [Compound I1, 3-(2H-benzo[3,4-d]1,3-dioxolen-5-yl)-1-{2-[(4-bromophenyl)carbonyl]-2,7-diazaspiro[3.5]non-7-yl}prop-2-yn-1-one] was run?
Answer: 500 to 5000 nM

Question: `O=C(c1cc2cc(Cl)ccc2[nH]1)N1CC2(CCN(Cc3ccc(OC(F)(F)F)cc3)CC2)C1` [Compound C36, 5-chloroindol-2-yl 7-{[4-(trifluoromethoxy)phenyl]methyl}-2,7-diazaspiro[3.5]non-2-yl ketone] was tested. Which IC50 did it give?
Answer: 100 to 500 nM

Question: Which IC50 does the source give for “bromophenyl)-1-{2-[(4-bromophenyl)carbonyl]-2,7-diazaspiro[3.5]non-7-yl}prop-2-yn-1-one [Compound C66]” here?
Answer: 100 to 500 nM

Question: `O=C(C#Cc1ccc(Br)cc1)N1CCC2(CC1)CN(C(=O)c1ccc(C(F)(F)F)cc1)C2` [Compound C71, 3-(4-bromophenyl)-1-(2-{[4-(trifluoromethyl)phenyl]carbonyl}-2,7-diazaspiro[3.5]non-7-yl)prop-2-yn-1-one] was tested. Which IC50 did it give?
Answer: < 100 nM

Question: Which IC50 does the source give for `O=C(/C=C/c1ccc(Br)cc1)N1CCC2(CC1)CN(C(=O)c1ccc(Cl)cc1)C2` [Compound L1, (2E)-3-(4-bromophenyl)-1-{2-[(4-chlorophenyl)carbonyl]-2,7-diazaspiro[3.5]non-7-yl}prop-2-en-1-one] here?
Answer: < 100 nM

Question: How did the IC50 turn out when `O=C(C#Cc1ccc(F)cc1)N1CC2(CCN(C(=O)c3ccc(Br)cc3)CC2)C1` [Compound C95, 1-{7-[(4-bromophenyl)carbonyl]-2,7-diazaspiro[3.5]non-2-yl}-3-(4-fluorophenyl)prop-2-yn-1-one] was run?
Answer: < 100 nM

Question: How did the IC50 turn out when `Cc1cccc(C(=O)N2CC3(CCN(C(=O)/C=C/c4ccc(Br)cc4)CC3)C2)c1` [Compound C12, (2E)-3-(4-bromophenyl)-1-{2-[(3-methylphenyl)carbonyl]-2,7-diazaspiro[3.5]non-7-yl}prop-2-en-1-one] was run?
Answer: < 100 nM

Question: For `O=C(c1cc2cc(Cl)ccc2[nH]1)N1CCC2(CC1)CN(Cc1ccc(C(F)(F)F)cc1)C2` [Compound C15, 5-chloroindol-2-yl 2-{[4-(trifluoromethyl)phenyl]methyl}-2,7-diazaspiro[3.5]non-7-yl ketone], which IC50 is on record?
Answer: 100 to 500 nM

Source: US10196369B2, “Spirocyclic EBI2 modulators” (Sanford Burnham Prebys Medical Discovery Institute, priority 2013, dated 2019)
